The values below come from patent US7476380B2, “Methods for treating illnesses of the tracheo-bronchial tract, especially chronic obstructive pulmonary disease (COPD)” (GSE-Forschungszentrum fur Umwelt und Gesundheit GmbH, priority 2000, dated 2009).

Experiment [1] has as its system MMP-9. The experiment in a line: MMP-9 in culture supernatant of alveolar macrophages (BAL cells), ELISA. The format is cell-based. As to conditions: human alveolar macrophages; for MMP-9 expression: 5 μM final, day 3 (day 4 the same), culture supernatant. How it is done:
(§1) For this purpose, human alveolar macrophages (AMs) were obtained via bronchial lavage. The AMs were seeded into Mono Mac 6 medium+10% FCS onto a 24 well “low attachment” plate (Costar) using 1×10^6 cells in a volume of 1 ml per each sample. Additions of vitamin A liposomes or of the pure substances, respectively, were carried out. Cells for RT-PCR or culture supernatant for protein determinations by means of ELISA, respectively, were harvested from parallel samples each on day 1, day 3, and day 4. Specifically, the following samples were prepared: • β=control sample, AMs in medium only • Lipleer=empty liposomes • LipVitA=liposomes containing vitamin A (retinoic acid, Sigma R-2625) 5 μM final • VitA=pure vitamin A (retinoic acid, Sigma R-2625) 5 μM final • LipPalm=liposomes containing all-trans retinol palmitate (Sigma R-3375) 3 μM final • Palmitat=all-trans retinol palmitate (Sigma R-3375) 3 μM final
(§2) The culture supernatants were monitored for MMP-9 and TMP-1 content using commercial ELISA kits (Amersham Pharmacia). In each case the numerals refer to ng/ml culture supernatant based on 1×10^6 cells.
(§3) • RPMI 1640 (Biochrom # F1415, Berlin), L-glutamine 2 mM (Gibco # 25030-024), penicillin 200 U/ml, streptomycin 200 μg/ml (Gibco # 15140-114), non-essential amino acids (NEAA) 1-2x (Gibco # 11140-35), OPI supplement (contains oxalacetate, Na pyruvate and insulin) 10 ml per 1 liter (Sigma # O-5003). Following filtration through a Gabro ultrafilter U 2000 (Martinsried, Germany) to remove LPS addition of 10% FCS, LPS tested. • Costar low attachment 24 well plates # 3473 (Bodenheim, Germany) 1×10^6 BAL cells (=cells obtained by brocho-alveolar lavage containing alveolar macrophages in an amount of about 80%) or 1.5×10^6 PBMCs (=peripheral blood mononuclear cells isolated via LymphoPrep gradient (Nycomed, Norway)), respectively, in a volume of 1 ml were used per sample. Pretreat the 24 well low attachment cell culture plate according to the manufacturer's instructions. For this purpose, fill the respective wells with 1 ml of medium and incubate for 20 min at 37° C. in an incubator. Afterwards remove the medium and replace by cell suspension. Add the liposomes loaded with vitamin A in a final concentration of 5×10^−6 M. Prepare parallel samples with pure vitamin A and empty liposomes as controls. For the measurement of MMP-9 and TIMP-1 in the culture supernatant and for determination of mRNA expression incubate the cells in an incubator for three days at 37° C. Afterwards resuspend the cells carefully and first remove 2×10^4 cells per PCR lysate for lysis in 200 μl of RNAclean (AGS, Heidelberg, Germany)in an Eppendorf reaction vial. Store these PCR lysates at −20° C. until further use. Transfer the remaining cell suspension into an Eppendorf vial and centrifuge for 5 min at 14,000×g. Remove the supernatant, transfer into a fresh vial and store at −80° C. until measurement. Summary of the Samples: • 1. BAL cells or PBMCs, respectively without any addition • 2. BAL cells or PBMCs, respectively + empty liposomes • 3. BAL cells or PBMCs, respectively + liposomes vitA 5 μM final • 4. BAL cells or PBMCs, respectively pure vitA 5 μM final Determinations of MMP-9 and TIMP-1 on the Protein Level by ELISA
(§4) For the measurement of MMP-9 and TIMP-1 in cell culture supernatants commercially available ELISA kits of Amersham Pharmacia Biotech company (Freiburg, Germany) are used. […]

Experiment [2] relates to TIMP-1. The experiment in a line: TIMP-1 in culture supernatant of alveolar macrophages (BAL cells), ELISA. The experiment is classed as cell-based. The note with it: human alveolar macrophages; for TIMP-1 expression: 5 μM final, day 3 (day 4 the same), culture supernatant. How it is done:
as §1, §2, §3, §4

Experiment [3] has as its system MMP-9. The experiment in a line: MMP-9 expression in blood monocytes (PBMCs). The experiment is classed as cell-based, human. How it is done:
as §3, with “Afterwards resuspend the cells carefully and first remove 2×10^4 cells per PCR lysate for lysis in 200 μl of RNAclean (AGS, Heidelberg, Germany)in an Eppendorf reaction vial. Store these PCR lysates at −20° C. until further use. Transfer the remaining cell suspension into an Eppendorf vial and centrifuge for 5 min at 14,000×g. Remove the supernatant, transfer into a fresh vial and store at −80° C. until measurement. Summary of the Samples: • 1. BAL cells or PBMCs, respectively without any addition • 2. BAL cells or PBMCs, respectively + empty liposomes • 3. BAL cells or PBMCs, respectively + liposomes vitA 5 μM final • 4. BAL cells or PBMCs, respectively pure vitA 5 μM final Determinations of MMP-9 and TIMP-1 on the Protein Level by ELISA” left out

Experiment [4] has as its system TIMP-1. The experiment in a line: TIMP-1 expression in blood monocytes (PBMCs). The experiment is classed as cell-based, human. How it is done:
as §3, with “Afterwards resuspend the cells carefully and first remove 2×10^4 cells per PCR lysate for lysis in 200 μl of RNAclean (AGS, Heidelberg, Germany)in an Eppendorf reaction vial. Store these PCR lysates at −20° C. until further use. Transfer the remaining cell suspension into an Eppendorf vial and centrifuge for 5 min at 14,000×g. Remove the supernatant, transfer into a fresh vial and store at −80° C. until measurement. Summary of the Samples: • 1. BAL cells or PBMCs, respectively without any addition • 2. BAL cells or PBMCs, respectively + empty liposomes • 3. BAL cells or PBMCs, respectively + liposomes vitA 5 μM final • 4. BAL cells or PBMCs, respectively pure vitA 5 μM final Determinations of MMP-9 and TIMP-1 on the Protein Level by ELISA” left out

In experiment [5] the test system is enzymes having gelatinase activities. As to conditions: Park and Kim, Mol. Cells 1999; cited from earlier work.
Experiment [6] deals with metalloproteases. The note with it: rat osteoblasts; Overall 1995; cited from earlier work.
For experiment [7], the system named is TMP-1. The note with it: rat osteoblasts, depending on the dose; Overall 1995; cited from earlier work.
Experiment [8] deals with TIMP. As to conditions: Heath et al. 1990; cited from earlier work.
For experiment [9], the system named is MMP-9/TIMP-1. The experiment in a line: MMP-9/TIMP-1 ratio of alveolar macrophages (BAL cells). The experiment is classed as cell-based, human. As to conditions: day 3. An excerpt: There is increasing evidence that disorders in the protease/protease inhibitor equilibrium are the cause underlying the pathogenesis of chronic lung diseases. […] This is particularly true for patients suffering from chronic obstructive bronchitis (COPD). Among the MMPs in COPD, it is particularly the secretion of MMP-9 metalloprotease which is increased in the airways and alveoles and can no longer be completely neutralized by its natural antagonist TIMP-1 (tissue inhibitor of metalloprotease). […] An important criterion to determine the degree of the disturbance of the protease/antiprotease equilibrium is the proteinase-to-inhibitor ratio: MMP-9/TIMP-1.
For this purpose, human alveolar macrophages (AMs) were obtained via bronchial lavage. The AMs were seeded into Mono Mac 6 medium+10% FCS onto a 24 well “low attachment” plate (Costar) using 1×10^6 cells in a volume of 1 ml per each sample. Additions of vitamin A liposomes or of the pure substances, respectively, were carried out. Cells for RT-PCR or culture supernatant for protein determinations by means of ELISA, respectively, were harvested from parallel samples each on day 1, day 3, and day 4. […]
The culture supernatants were monitored for MMP-9 and TMP-1 content using commercial ELISA kits (Amersham Pharmacia). […]

Where [10] appears, read: day 1 following vitamin A addition.

With `CC1=C(/C=C/C(C)=C/C=C/C(C)=C/C(=O)O)C(C)(C)CCC1` [free vitamin A, all-trans retinoic acid], the MMP-9 expression entry was “strongly reduced” in experiment [1] and “clear inhibition” in experiment [1] (listed as retinoic acid). Also, the TIMP-1 expression result in experiment [2] is on record as “increase”; in experiment [2] (listed as retinoic acid) it was “stimulation”. Also, in experiment [3], the “expression of MMP-9 metalloprotease” value is given as “clear inhibition”. Further, the TIMP-1 inhibitor expression entry in [4] was “stimulation”. Also, the “activity of enzymes having gelatinase activities (metalloproteases)” value in experiment [5] is on record as “increased”. In addition, in experiment [6], the expression of metalloproteases result was “increases”. Also, the “mRNA levels of TMP-1” value in experiment [7] was “clearly reduced”.
Turning to `CC1=C(/C=C/C(C)=C/C=C/C(C)=C/CO)C(C)(C)CCC1` [retinol], the MMP-9 expression result in experiment [1] is “clear inhibition”. Further, the TIMP-1 expression result in [2] is “stimulation”. Further, in [3], the “expression of MMP-9 metalloprotease” value was “clear inhibition”. Besides, the TIMP-1 inhibitor expression result in [4] is listed as “stimulation”. In addition, the TIMP levels in experiment [8] is given as 0.
Take vitamin A: the MMP-9 expression entry in experiment [1] was “significantly inhibits”. Also, in experiment [1] (setting [10]), the “MMP-9 on the protein level, day 1” value is given as “no effect”. Also, the TIMP-1 expression entry in experiment [2] was “significantly stimulates”. Further, in [2] (setting [10]), the “TIMP-1 on the protein level, day 1” value is on record as “no effect”. The “effect on the MMP-9/TIMP-1 ratio” value in [9] was “drastic effect”.
